Values of other authors as cited in article PMC10447463, “Data-mining unveils structure–property–activity correlation of viral infectivity enhancing self-assembling peptides” (Nature Communications, 2023).

Test system: HIV-1 infection of TZM-bl cells
Conditions: literature report; cited from earlier work
From the text: page 30: 8. Amyloid peptides from functional and pathogenic contexts Table S1 Selected amyloid peptides from protein data bases and literature reports. Note, that the peptide KLVFFAK, derived from amyloid ab was reported for retroviral transduction enhancement, however with very low efficiencies (> 4 fold compared to virus only). 33 ”+” indicates reported ThT fluorescence (ThT) or fibril formation, “0” indicates no data reported. All peptides were synthesized via Fmoc SPPS protocol and purchased . w ≥ . sequence ThT fibril pI charge hfauchere derived from original context ref. IKFLSVN + + 9.7 ...

KLVFFAK [reference compound]
retroviral transduction enhancement compared to virus only: > 4 fold
